Values after ≈ are worked out from the molar mass of the structure shown. Read-outs that look alike come from different tables or passages of the source.
Assays:
[1] = system: human embryoid bodies (hEB); assay: Cytotoxicity in human embryoid bodies, day 15 (MTT / CyQUANT); details: for IC50: Homo sapiens
Description: (§1) In general, the presently disclosed embryotoxicity testing protocols comprise the following sequence of steps. Studies using embryoid bodies generally comprise: a) preparation of various concentrations of test solutions in culture medium or a desired solvent; b) preparation of a cell suspension by enzymatic digestion of human embryonic stem cell colonies; c) culturing the cell suspension for formation of embryoid bodies in the presence and absence of one or more test solutions, and incubation for several days (e.g., three days) in hanging drops; d) cultivation of the embryoid bodies in bacteriological petri dishes for several days (e.g., two days) under controlled conditions; e) transfer of the embryoid bodies into 96 well plates and incubation for several days (e.g., 10 days) in the presence of one or more test solutions; and f) detection of the viability of the embryoid bodies after 15 days by MTT assay, or fluorescent or luminescent method, and isolation of RNA for studying gene expression. Studies using human foreskin fibroblasts (HFF) generally comprise: a) preparation of various concentrations of test solutions in culture medium or a desired solvent; b) plating of HFF cells in 96 well plates in the presence or absence of one or more test solutions for 15 days, changing the media and test solutions every 2 days; and c) detection of the viability of HFF after 15 days by MTT assay, or fluorescent or luminescent method. Studies using human embryonic stem cells generally comprise: a) preparation of various concentrations of test solutions in culture medium or a desired solvent; b) preparation of hES colonies by manual passage in the presence and absence of one or more test solutions, and incubation for 15 days on matrigel coated plates changing the media and test solutions every 2 days; c) disruption of the colonies after 15 days with enzymes to form single cells; d) labeling of single cells with a fluorescently-labeled dye, such as propidium iodide (“PI”); and e) detection of the percentage viability with FACS as a measure of cytotoxicity.
The culturing of the cell suspension is done by dispensing about ¼ of the cell suspension along with test chemicals on the inner side of a 100 mm bacteriological petri dish. Around 50-80 drops are dispensed for each concentration, the untreated control, and the solvent control. The lid is turned carefully into its regular position and is put on top of a petri dish containing 5 ml of phosphate buffered saline (“PBS”). The “hanging drops” are incubated for three days in a humidified atmosphere with 5% CO2 at 37° C.
On day 3, 5 ml of freshly prepared test solution is added to the lid of the “hanging drops” petri dish. The embryoid bodies are carefully transferred from the lid of the “hanging drops” petri dish to a 60 mm bacteriological petri dish. The suspension is cultivated for two days in a humidified atmosphere with 5% CO2 at 37° C.
On the 5th day, the EBs are transferred into 96 well plates by placing 10 EBs in each well. About 150 μl of freshly prepared test solution is added to each well, and three wells are used for each concentration. The 96 well plates are incubated for […] in a humidified atmosphere with 5% CO2 at 37° C. The remaining EBs are plated on a 24 well plate coated with 0.2% gelatin and allowed to differentiate. Media was replaced every second day until day 15.
On the 15th day, an MTT assay is performed. MTT solution (5 mg/ml) is prepared in culture medium containing test chemical. The MTT solution is added to all wells and incubated at 37° C. in a humidified atmosphere of 5% CO2 for 4 hours, after which the MTT desorb solution (acidified isopropanol) is added to each well. The plate is shaken on a micrometer plate for 15 minutes to dissolve the formazan. The absorbance is measured at 550-570 nm in a microtiter plate reader using 630 nm as a reference wavelength.

[2] = system: human foreskin fibroblasts (HFF); assay: Cytotoxicity in human foreskin fibroblasts, day 15 (MTT / CyQUANT); format: cell-based; details: for IC50: Homo sapiens, Fibroblast
Description: as §1
HFF were trypsinized, and a cell suspension of 1×10^4 cells/ml in routine culture medium was prepared. Using a multi-channel pipette, 50 μl volumes of the cell suspension (500 cells/well) was dispensed. Viability of the cells can be checked by staining an aliquot of the cell suspension with trypan blue. A viability of 90% is acceptable. The cells were incubated for 2 hours in a humidified atmosphere with 5% CO2 at 37° C., which allows for adherence of the cells. After 15 days of culture with medium changes (containing appropriate test compound concentrations) every 3 days, the viability of the cells was determined using the MTT test, which was detected quantitatively using a microplate ELISA reader at 570 nm with a 630 nm reference filter.
Cytotoxicity analysis of three cell types (hES, hEBs and HFF) was evaluated using the CyQUANT assay following compound treatment. All data were the mean of three independent experiments for each cell type. Data is represented as the mean±SE.
The endpoints of detection chosen in the study was inhibition of cell proliferation in human ES cells (IC50 hES), differentiating EBs (IC50 hEB), and in HFF (IC50 HFF), as evidenced in a cell viability assay using CyQuant assay.

[3] = 360 h, Table 3, mean of 3 experiments, day 15, read-out: IC50-HFF
[4] = Table 4, CyQuant cell viability assay, read-out: Human EST IC50 - HFF

SMILES	IC50 ([1]; 360 h, read-out: IC50-hEB) [µg/mL]	IC50 [2, 3] [µg/mL]	IC50 ([1]; read-out: IC50-hEBs) [µg/mL]	IC50 [2, 4] [µg/mL]	also measured
O=c1[nH]cc(F)c(=O)[nH]1 [5-Fluorouracil, 5-fluorouracil]	0.00114 (≈ 0.00873 µM)	0.11 (≈ 0.848 µM)	–	–	survival of hEBs until day 15 ([1]; 1 μg/ml (highest dose)): did not survive until day 15; effect on cell viability ([1]; hEBs, 0.01 μg/ml, FIG. 3A): significant effect; survival percentage ([1]; hEBs, 1 μg/ml, day 15, FIG. 3A): 7%; survival percentage ([2]; HFF, 1 μg/ml, day 15, FIG. 3A): 7%; effect on cell viability ([2]; HFF, up to 0.01 μg/ml, FIG. 3A): no major effect
CS(=O)(=O)OCCCCOS(C)(=O)=O [Busulfan, busulfan]	0.38 ± 0.03 (≈ 1.54 µM)	2.7 ± 0.2 (≈ 11 µM)	0.38 (≈ 1.54 µM)	2.7 ± 0.2 (≈ 11 µM)	cell survival ([1]; hEBs, 1 μg/ml, CyQUANT, FIG. 4E): 30%
Cn1c(=O)c2c(ncn2C)n(C)c1=O [Caffeine, caffeine]	81.6 ± 5.4 (≈ 420 µM)	79.3 ± 3.4 (≈ 408 µM)	81.6 (≈ 420 µM)	79.3 ± 3.4 (≈ 408 µM)	survival ([1]; hEBs, 500 μg/ml, FIG. 3B): about 10%; survival ([2]; HFF, 500 μg/ml, FIG. 3B): about 10%
NC(=O)NO [Hydroxyurea, hydroxyurea]	2.33 ± 0.2 (≈ 30.6 µM)	8.9 ± 0.9 (≈ 117 µM)	2.3 (≈ 30.2 µM)	8.9 ± 0.9 (≈ 117 µM)	–
COc1ccc2c(c1)c(CC(=O)O)c(C)n2C(=O)c1ccc(Cl)cc1 [Indomethacin, indomethacin]	4.49 ± 0.84 (≈ 12.5 µM)	33.5 ± 1.3 (≈ 93.6 µM)	4.49 (≈ 12.5 µM)	33.5 ± 1.3 (≈ 93.6 µM)	–
CC1(C)S[C@@H]2[C@H](NC(=O)Cc3ccccc3)C(=O)N2[C@H]1C(=O)O [Penicillin G, penicillin G]	–	–	–	–	cytotoxic effects in hEBs compared to hES cells and HFF ([1]; 1000 μg/ml, FIG. 3C): more cytotoxic effects; IC50-hEBs ([1]; Table 5): 1300 µg/mL (≈ 3890 µM); cell survival ([1]; hEBs, 1000 μg/ml, CyQUANT, FIG. 4A/4B): about 60%; cell survival ([1]; hEBs, 5000 μg/ml (highest dose), FIG. 3C): 30%; cell survival ([2]; HFF, 5000 μg/ml (highest dose), FIG. 3C): 1-2%; IC50-HFF ([2]; Table 3, mean of 3 experiments, day 15): 1661 ± 23.5 µg/mL (≈ 4970 µM); Human EST IC50 - HFF ([2]; Table 4, CyQuant cell viability assay): 1661 ± 23.5 µg/mL
